# Test results as given in PubChem BioAssay (NCI).
#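 Each compound was tested at five concentrations against cells in 96-well plates for 48 hours. At the GI50, growth is halved. Definition used: TGI = concentration required for complete inhibition of growth.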
# Legend:
# Test in all cases: DTP human tumour cell line panel, 48 h
# IGROV1 ovarian = system: IGROV1 ovarian
# SF-295 CNS = system: SF-295 CNS
# NCI-H522 lung = system: NCI-H522 lung
# HCT-116 colon = system: HCT-116 colon
# PC-3 prostate = system: PC-3 prostate
# HOP-62 NSCLC = system: HOP-62 NSCLC
# CAKI-1 renal = system: CAKI-1 renal
# NCI/ADR-RES ovarian = system: NCI/ADR-RES ovarian
# DMS 273 small cell lung = system: DMS 273 small cell lung
# HOP-18 NSCLC = system: HOP-18 NSCLC
SMILES,GI50 (IGROV1 ovarian) [µM],TGI (IGROV1 ovarian) [µM],GI50 (SF-295 CNS) [µM],TGI (SF-295 CNS) [µM],GI50 (NCI-H522 lung) [µM],TGI (NCI-H522 lung) [µM],GI50 (HCT-116 colon) [µM],TGI (HCT-116 colon) [µM],GI50 (PC-3 prostate) [µM],TGI (PC-3 prostate) [µM],GI50 (HOP-62 NSCLC) [µM],TGI (HOP-62 NSCLC) [µM],GI50 (CAKI-1 renal) [µM],TGI (CAKI-1 renal) [µM],GI50 (NCI/ADR-RES ovarian) [µM],TGI (NCI/ADR-RES ovarian) [µM],TGI (DMS 273 small cell lung) [µM],TGI (HOP-18 NSCLC) [µM]
COc1ccc2c(c1)C(=O)c1c-2n(CCCN)c(=O)c2cc(OC)c(OC)cc12,0.154,0.976,< 0.01,1.04,< 0.01,1.03,0.0287,0.181,0.205,1.27,< 0.01,0.133,0.0619,0.467,0.405,5.4,–,–
COc1ccc(/C=c2/sc3n(c2=O)NC(c2ccc(Cl)cc2)NN=3)cc1 (stereo not drawn),–,> 100,–,> 100,–,> 100,–,> 100,–,–,–,–,–,> 100,–,–,> 100,–
C/C(CCn1[nH]c(=O)ccc1=O)=N\Nc1ccc([N+](=O)[O-])cc1[N+](=O)[O-],–,> 100,–,> 100,–,–,–,> 100,–,–,–,> 100,–,> 100,–,–,> 100,> 100
O=C(Nc1cccc(Cl)c1)c1cc(N=Nc2ccc([N+](=O)[O-])cc2Cl)ccc1O,3.12,19,1.49,3.22,2.94,6.95,2.81,8.25,1.94,6.36,3.27,9.46,1.93,4.02,2.27,5.93,–,–
COc1ccc(CNc2cnc3cc(N)cc(N)c3n2)cc1,11.2,29,21.9,55.9,17.9,44.1,19.4,40.8,34.2,> 100,35.9,> 100,28.9,68.6,25.5,76.2,–,–
C#CCN(N=O)C(=O)NCCCC(NC(C)=O)C(=O)NCc1ccccc1 (stereo not drawn),–,> 100,–,> 100,–,> 100,–,> 100,–,–,–,> 100,–,> 100,–,–,–,> 100
